# Measured values published in paper PMC6277577, “In Salmonella enterica, OatA (Formerly YjgM) Uses O-Acetyl-Serine and Acetyl-CoA to Synthesize N,O-Diacetylserine, Which Upregulates Cysteine Biosynthesis” (Frontiers in Microbiology, 2018).
# T1: OatA (formerly YjgM) (Salmonella enterica, UniProt Q08021)
# T1 sequence (Q08021 1-167): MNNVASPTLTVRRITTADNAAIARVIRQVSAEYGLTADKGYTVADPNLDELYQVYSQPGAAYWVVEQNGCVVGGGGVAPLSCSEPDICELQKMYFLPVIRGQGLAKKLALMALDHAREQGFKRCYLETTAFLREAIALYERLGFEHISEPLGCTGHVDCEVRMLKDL
# B1: OatA (formerly YjgM) (Salmonella enterica subsp. enterica serovar Typhimurium str. LT2) (protein)
# chain: T1 sequence (Q08021 1-167)
# Tests used:
# OatA (formerly YjgM) = target: T1, OatA (formerly YjgM); assay: isothermal titration calorimetry with purified OatA; assay type: binding
# purified protein = substrate: CC(=O)OC[C@H](N)C(=O)O; assay: purified protein; assay type: biochemical, Salmonella enterica; details: acetyl-CoA positively cooperative (h = […]); no OAS binding seen by ITC under conditions tested, suggesting AcCoA binds before OAS
Molecule,Kd (OatA (formerly YjgM)) [µM],Km (purified protein) [µM]
CC(=O)SCCNC(=O)CCNC(=O)[C@H](O)C(C)(C)COP(=O)(O)OP(=O)(O)OC[C@H]1O[C@@H](n2cnc3c(N)ncnc32)[C@H](O)[C@@H]1OP(=O)(O)O [acetyl-CoA],~22,–
B1,–,740
